The results in this text go back to ChEMBL document CHEMBL1212786 (Antimicrob Agents Chemother, 2010).

Series [1] has as its target T1, CYP1A2 (Homo sapiens, UniProt P05177).
T1 sequence (P05177 whole entry): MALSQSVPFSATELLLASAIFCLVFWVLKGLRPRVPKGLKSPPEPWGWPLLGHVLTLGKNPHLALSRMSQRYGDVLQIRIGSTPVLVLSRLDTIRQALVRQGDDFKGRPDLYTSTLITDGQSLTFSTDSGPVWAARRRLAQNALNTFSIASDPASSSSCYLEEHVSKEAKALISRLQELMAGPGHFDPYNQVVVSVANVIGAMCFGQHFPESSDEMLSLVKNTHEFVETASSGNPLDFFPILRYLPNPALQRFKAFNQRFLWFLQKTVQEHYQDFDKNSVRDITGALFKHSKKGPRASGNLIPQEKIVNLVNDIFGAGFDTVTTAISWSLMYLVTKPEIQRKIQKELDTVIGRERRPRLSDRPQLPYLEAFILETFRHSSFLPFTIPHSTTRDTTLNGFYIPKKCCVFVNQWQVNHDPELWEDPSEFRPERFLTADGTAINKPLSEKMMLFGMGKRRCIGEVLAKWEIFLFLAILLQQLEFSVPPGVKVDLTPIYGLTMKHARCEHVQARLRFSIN
The experiment in a line: Induction of CYP1A2 in human hepatocytes at 2 uM after 72 hrs relative to control. The conditions noted are these: read-out: FC. Format: ADME, cell-based, Hepatocyte.

The target of series [2] is T2, CYP2B6 (Homo sapiens, UniProt P20813).
T2 sequence (P20813 whole entry): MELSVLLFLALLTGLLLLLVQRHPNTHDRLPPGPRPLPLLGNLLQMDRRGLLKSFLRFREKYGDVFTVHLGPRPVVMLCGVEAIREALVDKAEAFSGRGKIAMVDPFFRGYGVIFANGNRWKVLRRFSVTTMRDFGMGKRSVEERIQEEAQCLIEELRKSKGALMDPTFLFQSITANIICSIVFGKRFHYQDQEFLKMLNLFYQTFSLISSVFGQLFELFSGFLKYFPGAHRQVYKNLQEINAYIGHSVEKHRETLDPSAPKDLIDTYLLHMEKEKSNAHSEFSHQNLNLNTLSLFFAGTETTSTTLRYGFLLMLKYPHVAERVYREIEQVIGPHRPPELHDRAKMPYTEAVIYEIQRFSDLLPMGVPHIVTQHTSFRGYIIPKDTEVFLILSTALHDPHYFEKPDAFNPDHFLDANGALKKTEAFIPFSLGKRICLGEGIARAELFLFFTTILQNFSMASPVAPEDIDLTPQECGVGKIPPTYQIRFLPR
As to the kind of experiment: Induction of CYP2B6 in human hepatocytes at 2 uM after 72 hr relative to control. Format: ADME, cell-based, Hepatocyte. The conditions noted are these: read-out: FC.

For series [3], the target named is T3, CYP3A4 (Homo sapiens, UniProt P08684). The experiment in a line: Induction of CYP3A4 in human hepatocytes at 2 uM after 72 hrs relative to control. Format: ADME, cell-based, Hepatocyte. The following applies: read-out: FC.
A further series has as its system Hepatitis C virus. As to the kind of experiment: Antiviral activity against Hepatitis C virus infected in human Huh7ET cells assessed as inhibition of viral replication after 72 hrs by luciferase reporter gene assay. It is filed as functional, organism-based, Hepacivirus hominis. The following applies: Huh-7, 72 h.
Another series relates to PBMC. As to the kind of experiment: Antiinflammatory activity in human PBMC assessed as inhibition of anti-CD3/CD28 antibody-induced IL-2 production treated for 1 hr before anti-CD3/CD28 antibody challenge measured after 6 hrs by immunosuppression assay. It is filed as functional, cell-based.
The target of series [4] is T1, CYP1A2. The experiment in a line: Induction of CYP1A2 in human hepatocytes at 1000 uM after 72 hrs relative to control. Format: ADME, cell-based, Hepatocyte. The conditions noted are these: read-out: FC.
In series [5] the target is T2, CYP2B6. As to the kind of experiment: Induction of CYP2B6 in human hepatocytes at 1000 uM after 72 hrs relative to control. Format: ADME, cell-based, Hepatocyte. The conditions noted are these: read-out: FC.
For series [6], the target named is T3, CYP3A4. The experiment in a line: Induction of CYP3A4 in human hepatocytes at 1000 uM after 72 hrs relative to control. Format: ADME, cell-based, Hepatocyte. The following applies: read-out: FC.

T3 sequence (P08684 whole entry): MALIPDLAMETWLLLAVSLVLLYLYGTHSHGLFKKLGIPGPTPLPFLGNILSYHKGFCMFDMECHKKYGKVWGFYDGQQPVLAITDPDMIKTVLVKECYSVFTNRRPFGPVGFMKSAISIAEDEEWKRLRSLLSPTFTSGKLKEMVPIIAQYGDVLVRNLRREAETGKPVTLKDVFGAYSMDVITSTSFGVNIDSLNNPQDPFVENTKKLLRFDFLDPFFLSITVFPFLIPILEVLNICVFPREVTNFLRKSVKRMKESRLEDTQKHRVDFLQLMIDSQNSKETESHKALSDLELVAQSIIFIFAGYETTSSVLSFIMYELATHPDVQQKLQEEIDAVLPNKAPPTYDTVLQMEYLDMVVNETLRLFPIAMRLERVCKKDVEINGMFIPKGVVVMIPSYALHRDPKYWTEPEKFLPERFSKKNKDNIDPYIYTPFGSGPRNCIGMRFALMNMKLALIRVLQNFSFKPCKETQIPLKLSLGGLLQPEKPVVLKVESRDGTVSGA

For `Cc1ccc2cc3c(ccc4ccccc43)c3c2c1CC3` [3-METHYLCHOLANTHRENE], the values for the fold induction at 72 h, 2 µM at CYP1A2 [1], on CYP2B6 [2] and at CYP3A4 [3] were 21.2, 1.33 and 0.97, respectively.
One may read the CC50 as the concentration that lowers cell viability or growth by half. What is called EC50 is the concentration that produces a half-maximal response. On to `C/C=C/C[C@@H](C)[C@@H](O)[C@H]1C(=O)N[C@@H](CC)C(=O)N(C)CC(=O)N(C)[C@@H](CC(C)C)C(=O)N[C@@H](C(C)C)C(=O)N(C)[C@@H](CC(C)C)C(=O)N[C@@H](C)C(=O)N[C@H](C)C(=O)N(C)[C@@H](CC(C)C)C(=O)N(C)[C@@H](CC(C)C)C(=O)N(C)[C@@H](C(C)C)C(=O)N1C` [CYCLOSPORINE], for which, in the series on Hepatitis C virus, the CC50 turned out to be 5620 nM. For the same compound, in the series with PBMC, the 50% effective concentration (EC50) is 3.1 nM.
Consider `CCC1(c2ccccc2)C(=O)NC(=O)NC1=O` [PHENOBARBITAL], for which the fold induction at 72 h, 1000 µM at CYP1A2 [4] worked out at 1.67; at CYP2B6 [5], 9.1; on CYP3A4 [6], 6.73.
